Laboratory results reported in US20140271604A1, “HDAC Inhibitor Polymorphic Forms and Methods of Use” (priority 2013, published 2014).

What was measured:
[1] = Storage of samples under ambient conditions, form assigned by XRPD; assay type: physicochemical
[2] = Stability study in climate chamber (48-72 h, 40° C./75% RH), form assigned by XRPD; conditions: for XRPD Form c: form assigned after the stability studies / XRPD Form b: form assigned after the stability studies: at 40° C./75% RH; for XRPD Form b: form assigned after the stability studies: samples from anti-solvent addition, label = form before stability; for Stability after storage in a climate chamber / XRPD pattern following storage exposure in the climate chamber: 48 to 72 hours at 40 degrees centigrade and 75% relative humidity
Protocol: Solubility assessment experiments were carried out in a variety of solvents followed by storage in a climate chamber for 48 to 72 hours at 40 degrees centigrade and 75% relative humidity.

[3] = 1-1.5 weeks ambient, cooling-evaporative crystallization, Table 6, label = form after recrystallization
[4] = 48-72 H, samples from cooling-evaporative crystallization, Table 6, label = form after recrystallization
[5] = 48-72 H, samples from slurry conversion, Table 9, label = form after slurry
[6] = 1-1.5 weeks ambient, cooling-evaporative crystallization, Table 7, label = form after recrystallization
[7] = 1.5-2 weeks ambient, solvent-drop grinding, Table 8, label = form after grinding
[8] = 46-72 H, samples from solvent-drop grinding, Table 8, label = form after grinding
[9] = 48-72 H, samples from cooling-evaporative crystallization, Table 7, label = form after recrystallization
[10] = 1-1.5 weeks ambient, slurry conversion, Table 9, label = form after slurry

CC(C)C(C(=O)Nc1ccc(C(=O)NO)cc1)c1ccccc1 (stereo not drawn) [Form A2 + Am]
XRPD Form b: form assigned after storage under ambient conditions [1, 3]: Form U1 + Am
XRPD Form c: form assigned after the stability studies [2, 4]: Form Z_wet**

CC(C)[C@H](C(=O)Nc1ccc(C(=O)NO)cc1)c1ccccc1 [Form A2, (S)—N-hydroxy-4-(3-methyl-2-phenylbutanamido)benzamide]
XRPD Form b: form assigned after the stability studies ([2]; 48-72 H, Table 3): Form A

CC(C)C(C(=O)Nc1ccc(C(=O)NO)cc1)c1ccccc1 (stereo not drawn) [Form A3 + Am]
XRPD Form c: form assigned after the stability studies [2, 5]: Form A

CC(C)[C@H](C(=O)Nc1ccc(C(=O)NO)cc1)c1ccccc1 [Form A3, (S)—N-hydroxy-4-(3-methyl-2-phenylbutanamido)benzamide]
XRPD Form b: form assigned after storage under ambient conditions [1, 6]: Form L2
XRPD Form b: form assigned after storage under ambient conditions [1, 7]: Form A
XRPD Form c: form assigned after the stability studies [2, 8]: Form A

CC(C)[C@H](C(=O)Nc1ccc(C(=O)NO)cc1)c1ccccc1 [Form A4, (S)—N-hydroxy-4-(3-methyl-2-phenylbutanamido)benzamide]
XRPD Form b: form assigned after storage under ambient conditions ([1]; 1-1.5 weeks ambient, cooling-evaporative crystallization, Table 7, label = form after recrystallization, slurry in cyclohexane/cyclohexanone): Form B1_wet**
XRPD Form b: form assigned after storage under ambient conditions ([1]; 1-1.5 weeks ambient, cooling-evaporative crystallization, Table 7, label = form after recrystallization, slurry in cyclohexanone/tetrahydrofuran): Form R
XRPD Form c: form assigned after the stability studies [2, 9]: Form A

CC(C)[C@H](C(=O)Nc1ccc(C(=O)NO)cc1)c1ccccc1 [Form A5a, (S)—N-hydroxy-4-(3-methyl-2-phenylbutanamido)benzamide]
XRPD Form b: form assigned after storage under ambient conditions [1, 7]: Form A5a
XRPD Form c: form assigned after the stability studies [2, 8]: Form A5a
Stability after storage in a climate chamber [2]: exhibited a particular degree of stability
XRPD pattern following storage exposure in the climate chamber [2]: remained unchanged

CC(C)C(C(=O)Nc1ccc(C(=O)NO)cc1)c1ccccc1 (stereo not drawn) [Form A7 + Am]
XRPD Form b: form assigned after storage under ambient conditions [1, 10]: Form A3 + Am*
XRPD Form c: form assigned after the stability studies [2, 5]: Form A + Am*

CC(C)[C@H](C(=O)Nc1ccc(C(=O)NO)cc1)c1ccccc1 [Form A7, (S)—N-hydroxy-4-(3-methyl-2-phenylbutanamido)benzamide]
XRPD Form b: form assigned after storage under ambient conditions [1, 6]: Form A7
XRPD Form c: form assigned after the stability studies [2, 9]: Form A_plus

CC(C)[C@H](C(=O)Nc1ccc(C(=O)NO)cc1)c1ccccc1 [Form A8, (S)—N-hydroxy-4-(3-methyl-2-phenylbutanamido)benzamide]
XRPD Form b: form assigned after storage under ambient conditions [1, 6]: Form A8
XRPD Form c: form assigned after the stability studies [2, 9]: Form A

CC(C)C(C(=O)Nc1ccc(C(=O)NO)cc1)c1ccccc1 (stereo not drawn) [Form A + Form F1]
XRPD Form b: form assigned after storage under ambient conditions [1, 7]: Form A
XRPD Form c: form assigned after the stability studies [2, 8]: Form A

CC(C)C(C(=O)Nc1ccc(C(=O)NO)cc1)c1ccccc1 (stereo not drawn) [Form A + Form H1]
XRPD Form b: form assigned after the stability studies ([2]; 48-72 H, Table 3): Form A

CC(C)C(C(=O)Nc1ccc(C(=O)NO)cc1)c1ccccc1 (stereo not drawn) [Form A + Form J1]
XRPD Form c: form assigned after the stability studies [2, 9]: Form J1

CC(C)C(C(=O)Nc1ccc(C(=O)NO)cc1)c1ccccc1 (stereo not drawn) [Form A + Form V]
XRPD Form b: form assigned after storage under ambient conditions [1, 7]: Form A
XRPD Form c: form assigned after the stability studies [2, 8]: Form A

CC(C)[C@H](C(=O)Nc1ccc(C(=O)NO)cc1)c1ccccc1 [Form A_min + Form T]
XRPD Form c: form assigned after the stability studies [2, 8]: Form A5a

CC(C)[C@H](C(=O)Nc1ccc(C(=O)NO)cc1)c1ccccc1 [Form A_minus, (S)—N-hydroxy-4-(3-methyl-2-phenylbutanamido)benzamide]
XRPD Form b: form assigned after the stability studies ([2]; 48-72 H, Table 3): Form A_minus
Stability after storage in a climate chamber [2]: exhibited a particular degree of stability

CC(C)C(C(=O)Nc1ccc(C(=O)NO)cc1)c1ccccc1 (stereo not drawn) [Form B1 + Form F5]
XRPD Form b: form assigned after the stability studies ([2]; 48-72 H, Table 3): Form A

CC(C)[C@H](C(=O)Nc1ccc(C(=O)NO)cc1)c1ccccc1 [Form D1_wet]
XRPD Form b: form assigned after storage under ambient conditions [1, 3]: Form D1_wet**
XRPD Form b: form assigned after storage under ambient conditions [1, 6]: Form D1_wet
XRPD Form b: form assigned after the stability studies ([2]; 48-72 H, Table 3): Form D2
XRPD Form c: form assigned after the stability studies [2, 4]: Form A_wet**
XRPD Form c: form assigned after the stability studies [2, 9]: Form A + Am*

CC(C)[C@H](C(=O)Nc1ccc(C(=O)NO)cc1)c1ccccc1 [Form F1, (S)—N-hydroxy-4-(3-methyl-2-phenylbutanamido)benzamide]
XRPD Form b: form assigned after storage under ambient conditions [1, 10]: Form A_wet**
XRPD Form b: form assigned after the stability studies ([2]; 48-72 H, Table 3): Form A + Am*
XRPD Form b: form assigned after the stability studies ([2]; 48-72 H, Table 5): Form A
XRPD Form c: form assigned after the stability studies [2, 9]: Form A
XRPD Form c: form assigned after the stability studies [2, 5]: Form A

CC(C)[C@H](C(=O)Nc1ccc(C(=O)NO)cc1)c1ccccc1 [Form F2, (S)—N-hydroxy-4-(3-methyl-2-phenylbutanamido)benzamide]
XRPD Form b: form assigned after storage under ambient conditions [1, 6]: Form A3
XRPD Form c: form assigned after the stability studies [2, 9]: Form A

CC(C)[C@H](C(=O)Nc1ccc(C(=O)NO)cc1)c1ccccc1 [Form F3, (S)—N-hydroxy-4-(3-methyl-2-phenylbutanamido)benzamide]
XRPD Form c: form assigned after the stability studies [2, 9]: Form A

CC(C)[C@H](C(=O)Nc1ccc(C(=O)NO)cc1)c1ccccc1 [Form F4_wet, (S)—N-hydroxy-4-(3-methyl-2-phenylbutanamido)benzamide]
XRPD Form b: form assigned after storage under ambient conditions [1, 10]: Form A + Am*
XRPD Form c: form assigned after the stability studies [2, 5]: Form A + Am*

CC(C)[C@H](C(=O)Nc1ccc(C(=O)NO)cc1)c1ccccc1 [Form G_gel, (S)—N-hydroxy-4-(3-methyl-2-phenylbutanamido)benzamide]
XRPD Form b: form assigned after the stability studies ([2]; 48-72 H, Table 3): Form A + Am*

CC(C)[C@H](C(=O)Nc1ccc(C(=O)NO)cc1)c1ccccc1 [Form H1, (S)—N-hydroxy-4-(3-methyl-2-phenylbutanamido)benzamide]
XRPD Form b: form assigned after storage under ambient conditions [1, 3]: Form A
XRPD Form b: form assigned after storage under ambient conditions [1, 10]: Form A
XRPD Form c: form assigned after the stability studies [2, 4]: Form A
XRPD Form c: form assigned after the stability studies [2, 5]: Form A

CC(C)[C@H](C(=O)Nc1ccc(C(=O)NO)cc1)c1ccccc1 [Form H2, (S)—N-hydroxy-4-(3-methyl-2-phenylbutanamido)benzamide]
XRPD Form b: form assigned after storage under ambient conditions [1, 7]: Form A2
XRPD Form c: form assigned after the stability studies [2, 8]: Form A

CC(C)[C@H](C(=O)Nc1ccc(C(=O)NO)cc1)c1ccccc1 [Form J1, (S)—N-hydroxy-4-(3-methyl-2-phenylbutanamido)benzamide]
XRPD Form b: form assigned after storage under ambient conditions ([1]; 1-1.5 weeks ambient, cooling-evaporative crystallization, Table 7, label = form after recrystallization, slurry in dimethoxyethane/methanol): Form J2
XRPD Form b: form assigned after storage under ambient conditions [1, 10]: Form J1
XRPD Form b: form assigned after storage under ambient conditions [1, 7]: Form J1
XRPD Form c: form assigned after the stability studies [2, 5]: Form J1
Stability after storage in a climate chamber [2]: exhibited a particular degree of stability
XRPD pattern following storage exposure in the climate chamber [2]: remained unchanged

CC(C)[C@H](C(=O)Nc1ccc(C(=O)NO)cc1)c1ccccc1 [Form K_wet]
XRPD Form b: form assigned after storage under ambient conditions [1, 3]: Form A
XRPD Form c: form assigned after the stability studies [2, 4]: Form A

CC(C)[C@H](C(=O)Nc1ccc(C(=O)NO)cc1)c1ccccc1 [Form L1, (S)—N-hydroxy-4-(3-methyl-2-phenylbutanamido)benzamide]
XRPD Form b: form assigned after storage under ambient conditions [1, 3]: Form L1
XRPD Form b: form assigned after storage under ambient conditions [1, 6]: Form L1
XRPD Form c: form assigned after the stability studies [2, 4]: Form L1
XRPD Form c: form assigned after the stability studies [2, 9]: Form L1
Stability after storage in a climate chamber [2]: exhibited a particular degree of stability

CC(C)[C@H](C(=O)Nc1ccc(C(=O)NO)cc1)c1ccccc1 [Form L2, (S)—N-hydroxy-4-(3-methyl-2-phenylbutanamido)benzamide]
Stability after storage in a climate chamber [2]: exhibited a particular degree of stability

CC(C)C(C(=O)Nc1ccc(C(=O)NO)cc1)c1ccccc1 (stereo not drawn) [Form S + Am]
XRPD Form c: form assigned after the stability studies [2, 9]: Form A_plus

CC(C)[C@H](C(=O)Nc1ccc(C(=O)NO)cc1)c1ccccc1 [Form T_wet, (S)—N-hydroxy-4-(3-methyl-2-phenylbutanamido)benzamide]
XRPD Form b: form assigned after the stability studies ([2]; 48-72 H, Table 5): Form A

CC(C)C(C(=O)Nc1ccc(C(=O)NO)cc1)c1ccccc1 (stereo not drawn) [Form W + Am]
XRPD Form b: form assigned after the stability studies ([2]; 48-72 H, Table 3): Form A + Form
